From PubChem BioAssay (NCI)
Values joined by “and” are separate entries in the source; they are usually repeats but may differ in a detail not shown here. Equal values may be shown once.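 Cells were grown in 96-well plates and exposed to each compound for 48 hours at five concentrations; endpoints were interpolated linearly between bracketing concentrations, or set to the highest concentration if not reached. GI50 marks 50% less growth. TGI denotes the concentration required for complete inhibition of growth.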

Tests used:
Test in all cases: growth of human tumour cells (NCI), 48 h
RXF 393 renal = system: RXF 393 renal
SF-295 CNS = system: SF-295 CNS
A549 NSCLC = system: A549 NSCLC
SW-620 colon = system: SW-620 colon
HCT-15 colon = system: HCT-15 colon
SNB-75 CNS = system: SNB-75 CNS
M14 melanoma = system: M14 melanoma
HOP-92 NSCLC = system: HOP-92 NSCLC
OVCAR-5 ovarian = system: OVCAR-5 ovarian
MDA-MB-435 = system: MDA-MB-435

SMILES | GI50 (RXF 393 renal) | TGI (RXF 393 renal) | GI50 (SF-295 CNS) | TGI (SF-295 CNS) | GI50 (A549 NSCLC) | TGI (A549 NSCLC) | GI50 (SW-620 colon) | TGI (SW-620 colon) | GI50 (HCT-15 colon) | TGI (HCT-15 colon) | GI50 (SNB-75 CNS) | TGI (SNB-75 CNS) | GI50 (M14 melanoma) | TGI (M14 melanoma) | GI50 (HOP-92 NSCLC) | TGI (HOP-92 NSCLC) | GI50 (OVCAR-5 ovarian) | TGI (OVCAR-5 ovarian) | GI50 (MDA-MB-435) | TGI (MDA-MB-435)
COc1cc(-c2nn(-c3cccc(NC(=O)CCN4CCN(C)CC4)c3)cc2-c2ccncc2)ccc1Cl | 1.09 µM | 2.77 µM | 0.968 µM | 2.75 µM | 1.4 µM | 4.9 µM | 0.443 µM | 1.86 µM | 1.08 µM | 4.11 µM | 0.591 µM | 2.92 µM | 1.09 µM | 2.71 µM | 0.675 µM | 6.42 µM | 2.06 µM | 5.82 µM | 0.283 µM | 1.13 µM
CC(C)[C@H](C(=O)O[C@@H]1/C=C/C(=O)O[C@@H](C)CCC/C=C/[C@@H]2C[C@H](O)C[C@H]21)N(C)C | 3.29 µM | 15.6 µM | 4.85 µM | 25.1 µM | 14.6 µM | > 94.4 µM | 6.35 µM | 21.8 µM | 14.1 µM | 34.5 µM | 5.8 µM | > 43.2 µM | 11.1 µM | > 63.8 µM | 36.4 µM | 96.4 µM | 20.4 µM | > 89.5 µM | 5.84 µM | > 55.8 µM
CC(C)COC(c1ccc2c(c1)OCO2)C(C)Br (stereo not given) |  | 23.2 µM |  | 53.6 µM |  | > 100 µM |  | > 100 µM |  | 66.1 µM |  | 55.7 µM |  | 50.9 µM |  | 68.8 µM |  | 49.3 µM |  | 51.7 µM
c1cc2c(c(NC3=NCCN3)c1)CCCC2 |  | > 100 µM |  | > 100 µM |  | > 100 µM |  | > 100 µM |  | > 100 µM |  | > 100 µM |  | > 100 µM |  | > 100 µM |  | > 100 µM |  | > 100 µM
CC(=O)C(C=O)C(C)=O.CC(=O)CC(C)=O.CC(=O)CC(C)=O.[Ru] | 40.9 µM | > 100 µM | 16.2 µM | 68 µM | 33.5 µM | > 100 µM | 15.6 µM | 69 µM | 11.7 µM | 93.6 µM | > 100 µM | > 100 µM | 49.4 µM | > 100 µM | 17.4 µM | 94.1 µM | 32.2 µM | > 100 µM | 43.5 µM | > 100 µM
COC(=O)[C@]12CC[C@@H](C)[C@H](C)[C@@H]1C1=CC[C@@H]3[C@@]4(C)CC(=O)[C@H](O)[C@@](C)(CO)[C@@H]4C(=O)C[C@@]3(C)[C@]1(C)CC2 | 13.8 µM | 28.6 µM | 10.6 µM | 23.3 µM | 15.8 µM | 32.9 µM | 15.1 µM | 30.6 µM | 9.37 µM | 23.3 µM | 12.7 µM | 27.1 µM | 11.9 µM | 25.1 µM | 15.3 µM | 30.1 µM | 20.8 µM | 37.6 µM | 12.6 µM | 25.1 µM
O=C(c1ccco1)c1c(C(F)(F)F)n([O-])c2ccc(F)cc2[n+]1=O | 0.759 µM | 2.14 µM | 4.69 µM | 17.9 µM | 3.08 µM | 9.87 µM | 0.316 µM | 1.16 µM | 0.219 µM | 0.855 µM | 1.59 µM | 7.91 µM | 1.48 µM | 2.93 µM | 0.802 µM | 2.55 µM | 5.97 µM | 17.5 µM | 1.3 µM | 2.75 µM
Fc1ccc(-c2nn3c(COc4ccc(Cl)cc4Cl)nnc3s2)cc1Oc1ccccc1 | 18.7 µM | 45.9 µM | 6.2 µM | 20 µM | 20.7 µM | 62.2 µM | 36.9 µM | > 100 µM | 43.2 µM | > 100 µM | 32.2 µM | 91.1 µM | 23 µM | 67.2 µM | 0.254 µM | 7.93 µM | 11.1 µM | 23.7 µM | 16.8 µM | 50.8 µM
O=C1NC(=N[C@H](CO)c2ccccc2)S/C1=C\c1ccc2ncccc2c1 | 4.04 µM | 18.1 µM | 4.69 µM | > 20 µM | 4.62 µM | 18.8 µM | 4.02 µM | > 20.5 µM | 5.2 µM | > 25 µM | 1.46 µM | 17.7 µM | 7.46 µM | > 25 µM | 4.59 µM | 18.7 µM | 4.96 µM | 20.1 µM | 5.37 µM | > 25 µM
CC12CC(=O)C3C(CCC4=CC(=O)CCC43C)C1CC=C2CC(=O)O (stereo not given) |  | > 100 µM |  | > 100 µM |  | > 100 µM |  | > 100 µM |  | > 100 µM |  | > 100 µM |  | > 100 µM |  | > 100 µM |  | > 100 µM |  | > 100 µM
C[C@H](c1ccccc1)N(CCC(=O)O)C(=O)CCN(C(=O)CCN(C(=O)CCN[C@H](C)c1ccccc1)[C@H](C)c1ccccc1)[C@H](C)c1ccccc1 | > 100 µM | > 100 µM | > 100 µM | > 100 µM | > 100 µM | > 100 µM | > 100 µM | > 100 µM | > 100 µM | > 100 µM | 66.4 µM | > 100 µM | > 100 µM | > 100 µM | 92 µM | > 100 µM | > 100 µM | > 100 µM | > 100 µM | > 100 µM
COc1ccc(/C=C2\CCC(Cc3ccccc3)(CN(C)C)C2=O)cc1 (stereo not given) |  | > 72.9 µM |  | > 100 µM |  | > 100 µM |  | > 73.3 µM |  | > 70.7 µM |  | > 100 µM |  | 66.2 µM |  | > 100 µM |  | > 100 µM |  | > 100 µM
COc1cc(Cn2c(SCC(=O)Nc3ccc(Cl)cc3)nc3ccccc3c2=O)cc(OC)c1OC | 2.59 µM | 8.88 µM | 5.54 µM | 18.4 µM | 4.66 µM | 21.1 µM | 31.8 µM | > 100 µM | 17 µM | > 100 µM | 1.58 µM | 4.89 µM | 16.5 µM | 86.4 µM | 2.26 µM | 9.12 µM | 14.8 µM | > 100 µM | 22.8 µM | > 100 µM
O=C1/C(=C/c2ccccc2[N+](=O)[O-])COc2ccc(O)c(O)c21 | 0.357 µM | 1.46 µM | 3.26 µM | 11.1 µM | 2.61 µM | 12.4 µM | 0.353 µM | 1.44 µM | 0.286 µM | 1.15 µM | 1.46 µM | 6.17 µM | 0.797 µM | 2.89 µM | 1.1 µM | 2.9 µM | 1.69 µM | 3.66 µM | 0.691 µM | 2.38 µM
N#Cc1ccc(/C=C/C(=O)c2ccccc2)cc1 | 7.15 µM and 5.93 µM | 19.3 µM and 18.2 µM | 16.4 µM and 11.8 µM | 32.1 µM and 25.4 µM | 14.8 µM and 15.4 µM | 27.9 µM and 31.8 µM | 2.72 µM and 1.77 µM | 7.73 µM and 3.45 µM | 7.13 µM and 3.28 µM | 18.7 µM and 13.5 µM | 14.5 µM and 13.9 µM | 27.6 µM and 27.5 µM | 11.3 µM and 13.4 µM | > 50.5 µM and 27.8 µM | 16.9 µM and 17.6 µM | 65.5 µM and 39 µM | 16.6 µM and 14.6 µM | 31.1 µM and 30 µM | 6.28 µM and 8.07 µM | 18 µM and 21.8 µM
Oc1cccc(-c2nc(-c3ccccc3)[nH]c2-c2ccncc2)c1 | 5 µM | 14.7 µM | 14.7 µM | > 25 µM | 14.6 µM | > 25 µM | 9.39 µM | > 23.4 µM | 7.36 µM | > 20.3 µM | 9.93 µM | > 23.7 µM | 1.71 µM | 12.6 µM | 5.98 µM | 24.2 µM | 16.9 µM | > 25 µM | 4.31 µM | > 25 µM
Cc1ccc(S(=O)(=O)CC2(Br)CCc3ccccc3C2=O)cc1 (stereo not given) |  | 39 µM |  | > 100 µM |  | > 100 µM |  | > 100 µM |  | 42.5 µM |  | 54.9 µM |  | > 100 µM |  | > 100 µM |  | > 100 µM |  | 40.3 µM
CCOC(=O)c1cc(-c2ccccc2)[nH]c1N/N=C/c1c(Cl)cccc1Cl | 0.47 µM | 9.51 µM | 0.339 µM | 10.3 µM | 1.92 µM | > 100 µM | 0.433 µM | > 81.2 µM | 0.671 µM | > 100 µM | 1.53 µM | > 39.6 µM | 1.71 µM | 25.3 µM | 2.02 µM | 62.4 µM | 4.99 µM | 98 µM | 0.272 µM | 2.83 µM
CNCCN(C)Cc1cn[nH]c1-c1ccc(OC2CC(OCCC3CCOCC3)C2)cc1 (stereo not given) | 48.5 µM | > 100 µM | 49.9 µM | > 100 µM | > 100 µM | > 100 µM | > 100 µM | > 100 µM | > 100 µM | > 100 µM | 38.2 µM | > 100 µM | > 66.3 µM | > 100 µM | 1.43 µM | > 50.8 µM | > 100 µM | > 100 µM | > 100 µM | > 100 µM
O=C(Nc1ccccc1)Nc1ccc(Cl)c(Cl)c1 | 6.31 µM | 33.8 µM | 2.89 µM | 21.5 µM | 3.04 µM | > 100 µM | 3.58 µM | > 100 µM | 3.22 µM | > 100 µM | 5.35 µM | > 100 µM | 4.64 µM | > 100 µM | 1.52 µM | 6.12 µM | 8.85 µM | > 100 µM | 3.26 µM | 33.9 µM
